Numbers after ± are expanded uncertainties. Each block holds one compound with its values, some of them ahead of it.
How the values were obtained:
[1] = 298.15 K, 100 kPa, Liquid; for viscosity: Falling or rolling sphere viscometry; for mass density: Vibrating tube method
[2] = xn = mol fraction of the nth substance listed; conditions: 298.2 K, 100 kPa, Liquid, x1 = 0.0843
[3] = wn = mass fraction of the nth substance listed; conditions: 298.2 K, 100 kPa, Liquid; for viscosity: Falling or rolling sphere viscometry; for mass density: Vibrating tube method

Structure (SMILES): C=C(C)[C@H]1CC=C(C)CC1 [(R)-1-methyl-4-(1-methylethenyl)cyclohexene]
viscosity [1]: 0.87 ± 0.01 mPa·s
mass density [1]: 839.1 ± 1.7 kg/m3

Structure (SMILES): CCO [ethanol]
viscosity [1]: 1.13 ± 0.01 mPa·s
mass density [1]: 785.1 ± 1.6 kg/m3

Structure (SMILES): C=CC(C)(O)CCC=C(C)C (stereo not drawn) [3,7-dimethyl-1,6-octadien-3-ol]
viscosity [1]: 4.35 ± 0.05 mPa·s
mass density [1]: 857.3 ± 1.7 kg/m3

Structure (SMILES): C=CCc1ccc(O)c(OC)c1 [2-hydroxy-5-allylanisole]
viscosity [1]: 6.98 ± 0.08 mPa·s
mass density [1]: 1062 ± 2 kg/m3

Structure (SMILES): C/C1=C\CC/C(C)=C/CC(C)(C)/C=C/C1 [(E,E,E)-2,6,6,9-tetramethyl-1,4,8-cycloundecatriene] + C=C1CC/C=C(\C)CC[C@@H]2[C@@H]1CC2(C)C
viscosity ([2]; Falling or rolling sphere viscometry): 5.87 ± 0.07 mPa·s
mass density ([2]; Vibrating tube method): 897.1 ± 1.8 kg/m3

Next, values leading:

viscosity [1]: 0.89 ± 0.01 mPa·s
Structure (SMILES): O [water]

viscosity [1]: 2.3 ± 0.03 mPa·s
mass density [1]: 898.6 ± 1.8 kg/m3
Structure (SMILES): C=CC(C)(CCC=C(C)C)OC(C)=O (stereo not drawn) [linalool acetate]

viscosity [1]: 4.23 ± 0.04 mPa·s
mass density [1]: 1031 ± 2 kg/m3
Structure (SMILES): C=CCc1ccc(OC)c(OC)c1 [methyleugenol]

viscosity ([3]; w2 = 0.061): 1.31 ± 0.02 mPa·s
viscosity ([3]; w2 = 0.124): 1.46 ± 0.02 mPa·s
viscosity ([3]; w2 = 0.172): 1.64 ± 0.04 mPa·s
viscosity ([3]; w2 = 0.233): 1.8 ± 0.03 mPa·s
viscosity ([3]; w2 = 0.276): 1.87 ± 0.02 mPa·s
viscosity ([3]; w2 = 0.34): 1.9 ± 0.1 mPa·s
viscosity ([3]; w2 = 0.41): 2.19 ± 0.15 mPa·s
viscosity ([3]; w2 = 0.5): 2.31 ± 0.03 mPa·s
viscosity ([3]; w2 = 0.62): 2.34 ± 0.02 mPa·s
mass density ([3]; w2 = 0.061): 802.5 ± 1.9 kg/m3
mass density ([3]; w2 = 0.124): 819.5 ± 2 kg/m3
mass density ([3]; w2 = 0.172): 833.4 ± 3.1 kg/m3
mass density ([3]; w2 = 0.233): 848.2 ± 3.3 kg/m3
mass density ([3]; w2 = 0.276): 857.9 ± 2.6 kg/m3
mass density ([3]; w2 = 0.34): 861.8 ± 9 kg/m3
mass density ([3]; w2 = 0.41): 887.3 ± 18 kg/m3
mass density ([3]; w2 = 0.5): 908.8 ± 4.9 kg/m3
mass density ([3]; w2 = 0.62): 935.2 ± 9 kg/m3
Structure (SMILES): CCO [ethanol] + O

Source: the NIST ThermoML archive (doi:10.1021/acs.jced.8b00939)
